Assay [1] is described as follows: Presensitization and dose finding: DNCB solution in acetone applied to spots on the forearm, DTH rash/erythema observed. In kind it is in vivo, human. Conditions: for erythema on forearm: sensitized subject. An excerpt: The subject then applied a 0.1%, 0.2%, and 0.3% solutions to separate small spots on the forearm.
The subject of assay [2] is herpes simplex virus type 1. Kind of assay: Treatment of an individual with frequent and severe cold sores: DNCB solution applied at the site of the HSV lesion on the lower lip. In kind it is in vivo, human. The source says:
The individual treated was one of the inventors. They are a person and was […] at the time of this treatment. The subject suffered from frequent cold sores on the lower lip. The outbreaks typically lasted 7-10 days and frequently longer. The subject had suffered from frequent cold sores most of their life. During the 6 months prior to this treatment, the outbreaks had been almost continuous. After getting over one outbreak, the next outbreak would begin often within a week.
In the morning they washed it off. A mild erythema in the area of the cold sore developed over 2-3 days and lasted a further 5 days, and the cold sore resolved in about 7 days, which was a typical duration for this individual or a slightly shorter duration than normal. […] Each outbreak would begin and completely resolve in one day. […] We think this may be because the immune system was recognizing not just the DNCB but also the herpes virus antigens with this second application. With the greater inflammation, the cold sore outbreak was worse than any of the outbreaks between the first and second DNCB treatments. […] The outbreak seemed to worsen as the inflammation associated with the DTH response worsened, and only lessened when the DTH response subsided.
When the outbreak subsided, the subject went another 6 months without any outbreaks to the present time.
For several months before and for the entire time described herein after the initial DNCB treatment, the subject took no antiviral medicines.

The subject of assay [3] is peripheral blood mononuclear cells. Nature of the assay: PBMC proliferation assay with stimulation by heat inactivated KOS HSV-1 particles. In kind it is cell-based, human. To be noted: after treatment compared with before treatment; killed KOS HSV-1 particles. An excerpt: At visit 1, before applying SADBE, a blood sample is collected from each patient for use in a peripheral blood mononuclear cell (PBMC) proliferation assay to test immune response to herpes virus.
Two months after visit 2 (the first treatment application of SADBE to an HSV lesion) if the patient has not experienced a recurrence outbreak after visit 2, or one month after visit 3 (the treatment application of SADBE to a lesion of a second outbreak), a blood sample is collected from the patient. The first, pretreatment, blood sample and the second, posttreatment, blood sample are used to conduct PBMC proliferation assays to test immune response to herpes virus before and after treatment.
Venous blood is collected in heparinized test tubes for mononuclear cell isolation prior to treatment and after treatment at the times described above. […]
KOS HSV-1 virus (American Type Culture Collection) is grown in culture in VERO cells and collected. […] The titer of the virus stock is determined. […]
Results are calculated by averaging optical density of the wells in each of the groups. A stimulation index is calculated to reflect the proliferation in the wells stimulated by killed HSV as compared to the positive and negative controls. The average optical absorbance of the positive controls is set as a stimulation index (SI) value of 100 and the average absorbance of the negative controls as a SI value of 0.

A further assay has as its system herpes labialis. Nature of the assay: Treatment of herpes labialis by squaric acid dibutyl ester (thirty patients, subject diaries). Conditions: sensitizing dose 2% SADBE in DMSO, then two treatments on lesions in the next two outbreaks. It is filed as in vivo, human. On the procedure: Thirty patients are recruited meeting the following criteria:
In a screening interview, vital signs are recorded, and information is collected on any medications the patient is currently taking, previous and current treatments for cold sores, severity and duration of cold sores.
Upon entering the study, patients are sensitized to squaric acid dibutyl ester (SADBE) by dipping a cotton-tipped swab in a 2% solution of SADBE in DMSO and swabbing a 1 cm^2 area on the forearm. Participants are told then to wait at least 2 weeks for their first treatment.
Throughout the study, the participants are asked to maintain a subject diary, in which they record each day any symptoms they experience, including fever, swelling, pain, redness, itching, burning, the size of any lesions, and any medications taken.
After the 2-week period to allow development of sensitivity to SADBE, upon the beginning of his or her next outbreak (within 72 hours of the first signs of an outbreak), each participant is swabbed at the site of the herpes labialis lesion with a 0.5% solution of SADBE in DMSO.
Upon the next distinct outbreak at least 2 weeks after the previous treatment at visit 2, study diaries are collected. If the diary reflects redness, blistering, or burning greater than 0.5 cm beyond the clinical lesion with the previous SADBE treatment, the dosage of SADBE is decreased to 0.1%. […]

For another assay, the system named is warts. To be noted: intralesional injection together with antigens; differences not statistically significant; cited from earlier work.
Setting [4] is: first treatment, 0.2% DNCB on lower lip.
Where [5] appears, read: second treatment, 0.2% DNCB on lower lip.
[6] abbreviates: third treatment, 0.1% DNCB solution.

On to `O=[N+]([O-])c1ccc(Cl)c([N+](=O)[O-])c1` [DNCB, 1-chloro-2,4-dinitrobenzene], for which the erythema on forearm entry in assay [1] (0.1% DNCB solution) was “almost no erythema”. Moreover, in assay [1] (0.2% DNCB solution), the erythema on forearm entry is listed as “mild but easily seen erythema”. Besides, in assay [1] (2% DNCB in acetone, first application, two spots on forearm), the “rash on forearm after presensitizing application” value is “No rash developed”. The “duration of rash on forearm” value in assay [1] (2% DNCB, second application two weeks after sensitizing dose) is recorded as 3 weeks. Moreover, in assay [1] (2% DNCB, two weeks after sensitizing dose, different spots on forearm), the “rash on forearm after second application” value is “very strong but localized rash”. Moreover, the “severity and duration of subsequent outbreaks compared with before” value in assay [2] (4 weeks after first treatment with 0.2% DNCB) was “much less severe and of much shorter duration than before”. Further, the “erythema in the area of the cold sore” value in assay [2] (first treatment, 0.2% DNCB in acetone on lower lip, left on overnight) is reported as “mild erythema”. Further, in assay [2] (setting [4]), the “further duration of erythema” value is reported as 5 days, the “time over which erythema developed” value fell in the range of 2 to 3 days and the “time to resolution of the treated cold sore” value is on record as “about 7 days”. This molecule showed a time without outbreaks in assay [2] (following second DNCB treatment at the site of a lesion) of 6 months. In assay [2] (following third treatment (0.1% DNCB), to the present time), this molecule came in with a time without outbreaks of 6 months. Further, the “frequency of subsequent outbreaks” value in assay [2] (next 4 weeks after first treatment with 0.2% DNCB) is recorded as “approximately weekly”. For the same molecule, in assay [2] (setting [5]), the “duration of the treated outbreak” value is given as “about 7 days” and the “severity of the treated outbreak” value was “as severe or even slightly more severe than a typical outbreak”. Also, in assay [2] (second treatment, 0.2% DNCB on lower lip, about two months after the first), the “inflammation and erythema with the application” value is on record as “more severe than they had been with the first application”. In assay [2] (setting [6]), the “DTH response at the cold sore” value is recorded as “moderate DTH response” and the “duration of the treated outbreak” value is “about 10 days”.

With `CCCCOc1c(OCCCC)c(=O)c1=O` [SADBE, squaric acid dibutyl ester], the “stimulation index of PBMC” value in assay [3] was “increased after treatment”. Further, in the assay on herpes labialis, the “duration of outbreaks compared with before treatment” value was “last for less time” and the “number of outbreaks compared with before treatment” value is on record as “fewer outbreaks than before treatment”.

On to “GM-CSF: granulocyte monocyte colony stimulating factor, cytokine used as immune response enhancer”, for which the “fraction of patients responding to treatment compared with antigen alone” value with warts is “larger fraction”.

As to interferon alpha, the “fraction of patients responding to treatment compared with antigen alone” value with warts is “larger fraction”.
